# Patent US20090030037A1, “Sustained Release Formulation and Dosing Schedules of Leukotriene Synthesis Inhibitor for Human Therapy” (deCODE Genetics ehf., priority 2005, published 2009)
# What was measured:
# CD40L = test: Study DG-031-204: CD40L; assay type: in vivo, human; details: after 4 weeks
# Experimental: An additional single site, open label study was carried out to obtain biomarker and safety data on additional DG-031 doses (i.e., 1000 mg and 1500 mg). This study examined the safety, tolerability and dose-related effects of DG-031 on inflammatory biomarkers including: LTB4, hsCRP, and MPO. A total of 119 patients with a prior history of CAD and MI were randomized to receive either 1000 mg DG-031 (500 mg BID) or 1500 mg DG-031 (500 mg TID) daily for 4-6 weeks. Treatment with DG-031 in addition to the subject's standard care, medication, and treatment, was prescribed by the patient's cardiologist. A majority of the subjects received statin therapy before, during and after the study. Follow-up assessments were performed 2 weeks after the end of study drug administration.
# The biomarkers were analyzed as described in Example 1. Statistical analysis of the data was carried out using a one-sample t-test on change from baseline with a two-sided nominal significance level of 0.050. Biomarker concentrations were log-transformed and a simple last observation carried forward (LOCF) scheme was used to impute missing observations.
# CD40L was measured at 2-week intervals. […] After 4 weeks, there was a 22% (p<0.001; n=55) reduction in CD40L in the 500 mg BID group and a 21% (p<0.001; n=57) reduction in the 500 mg TID group. CD40L levels remained suppressed at the 2 week follow up visit.
# [1] = Effect of high fat meal on DG-031 pharmacokinetics; assay type: in vivo, human; details: administration with a high fat meal
# Experimental: In the context of treatment of a single individual, a steady state concentration may be expected to fluctuate from day-to-day with variations in the individual's diet, level activity, state of health, co-administration of other medications, and the like. DG-031 is preferably administered with food to improve adsorption. […] Alternatively, DG-031 is administered in the absence of food. The decision whether or not to administer with food may be based on the Cmax and Cmin observed following administration of a novel formulation where the Cmax and Cmin fall within the desired range. […] In this context, the steady state concentration for an individual refers to an average concentration taken at multiple time points, to adjust for such fluctuation.
# MPO = test: Study DG-031-201: ionomycin-induced MPO release in whole blood ex vivo; set-up: species or system human; details: difference visit 2 to 5; 500 and 750 mg/day vs placebo
# Experimental: Genet. 2004). Apart from FLAP, allele A of the SNP SG12S25 in the LTA4 hydrolase gene, another gene in the LT pathway, is also associated with MI, as described in PCT application no. PCT/US03/32556 and PCT/US04/30582 incorporated by reference.
# Patients who met the study eligibility criteria were enrolled and randomized into 3 different dose-level groups: (1) 64 patients on 250 mg/day therapy with DG-031 (250 mg q.d.), vs placebo; (2) 64 patients on 500 mg/day therapy with DG-031 (250 mg b.i.d.) vs placebo; and (3) 63 patients on 750 mg/day therapy with DG-031 (250 mg t.i.d.) vs placebo. […] All patients received 3 tablets per day. Treatment periods, 4 weeks in duration each, were separated by a 2-week washout period. The placebo tablets were identical in shape, color, form and taste to the active tablets except that they contained no active drug ingredients. Treatment with DG-031 or placebo was in addition to the subject's standard care, including all medications and treatment plan as prescribed by the subject's cardiologist prior to enrolment. […]
# All data were analyzed according to a pre-established statistical analysis plan (SAP) and by intention-to-treat (ITT). […] The difference between DG-031 and placebo treatment was the primary outcome, assessed separately for each of the biomarkers. […]
smiles,measurement,setting,value
"O=C(O)[C@@H](c1ccc(OCc2ccc3ccccc3n2)cc1)C1CCCC1 [DG-031, (R)-(+)-alpha-cyclopentyl-4-(2-quinolinylmethoxy)-Benzeneacetic acid]",Reduction in CD40L,CD40L; 500 mg BID,22%
same,Reduction in CD40L,CD40L; 500 mg TID,21%
same,half-life,[1],shorter
same,"Carry-over effect, MPO in whole blood, corr. for wbc",MPO,0.01
